Data from patent US20250304623A1, “PEPTIDES FOR INTRACELLULAR DELIVERY” (UNIVERSIDADE DE SANTIAGO DE COMPOSTELA, priority 2022, published 2025).
*: point of attachment. NHNH2 = NN*

Assays:
Assay type in all cases: cell-based
[1] = tested on: HCT116 cells; assay: RLuc pDNA delivery, robotic library screening, HCT116
[2] = tested on: HepG2 cells; assay: EGFP mRNA delivery, robotic library screening, HepG2; settings: HepG2 cells
Description: Cells were seeded in a 96 well plate the day before the experiment at a concentration of 50,000 cell/mL (100 μL/w) in DMEM+10% FBS+1% Gln-Abt. For robotic library screening, the delivery of EGFP-mRNA (from TriLink, fully substituted with 5-methoxyuridine, capped and polyadenylated; TriLink, CleanCap® EGFP mRNA (5moU), ref. L-7201) in six different cell lines was performed. Amphiphilic molecule stock solutions were prepared in DMSO as described above and diluted in DMEM to afford a range of concentrations. The solutions of EGFP-mRNA/amphiphilic molecule complexes were freshly prepared prior to the transfection experiments. 35 μL of the corresponding amphiphile were added to 10 μL of a solution of EGFP-mRNA at 10 ng/μL in DMEM. The mixture was shaken for 30 min at room temperature before the addition to the cells. The cell medium was aspirated, and cells were washed with PBS twice. […] After the incubation, the medium was replaced by 100 μL of fresh DMEM supplemented with 10% FBS. The total EGFP fluorescence was quantified after 72 h in a well plate reader. Amphiphile transfection efficiency was compared and normalized to Lipofectamine® MessengerMax efficiency (value of 1 in Tables 1-5 and 7; double underlined numbers). All experiments were done in triplicate.
(§1) Tables 1-7: RLuc (pDNA) or EGFP (mRNA) expression levels were normalized to Lipofectamine reagents (value=1) and expressed as fold-times signal increase. In the case of siRNA, the siRNA treated cells fluorescence was compared with siMOCK control fluorescence, while Cas9-RNP mediated knockout was measured against the fluorescence of untreated cells. In both siRNA and Cas9-RNP, values are expressed as % fluorescence reduction. Amphiphile concentration was 5 μM in all cases. All experiments were performed in triplicate.
Tables 14-19 show the mean (triplicates) fluorescence intensity measured after the transfection of EGFP mRNA by different amphiphiles at different concentrations in a variety of cell lines. Background fluorescence values, accounted by untreated control cells, were subtracted for processing.

[3] = tested on: HepG2 cells; assay: RLuc pDNA delivery, robotic library screening, HepG2
Description: (§2) Cells were seeded in a 96 well plate the day before the experiment at a concentration of 60,000 cell/mL (100 μL/w) in DMEM+10% FBS+1% Gln-Abt. For robotic library screening, the delivery of pDNA encoding for the expression of Renilla luciferase gene (RLuc, pRL-CMV (Promega, #E2261)) in six different cell lines was performed. Amphihilic molecule stock solutions in DMSO were diluted with DMEM and freshly mixed with pDNA stock solutions in DMEM prior to transfection experiments, to afford several complexes at different amphiphile concentration (2-10 μM) while maintaining a constant final pDNA concentration of 2 ng/μL. The mixture was shaken for 30 min at room temperature before the addition to the cells. The cell medium was aspirated, and cells were washed twice with PBS. Finally, 50 μL of the complex's solution were added to the cells and incubated for 4 h. After the incubation, the medium was replaced by 100 μL of fresh DMEM supplemented with 10% FBS. 72 hours after transfection the DMEM was removed, cells were washed once with HBSS and 90 μL of HBSS were added to each well. Cells were incubated at 37° C. for 30 minutes. Then basal luminescence levels were read in a plate reader. Immediately, 10 μL of coelenterazine h in HBSS were added to each well (5 μM final concentration) and cells were incubated at 37° C. for 10 minutes. Finally, the total luminescence measurement of the plates was performed. Amphiphile transfection efficiency was compared and normalized to Lipofectamine® 2000 efficiency (value of 1 in Tables 1-5 and 7; bold numbers). All experiments were done in triplicate.
as §1
(§3) Tables 8-13 show the mean (triplicates) luminescent intensity (RLU) measured after the transfection of RLuc pDNA by different amphiphiles at different concentrations in a variety of cell lines. Background luminescence values, accounted by untransfected control cells, were subtracted for processing.

[4] = tested on: Hela cells; assay: RLuc pDNA delivery, robotic library screening, HeLa; settings: Hela
Description: as §2, with “Amphihilic molecule stock solutions in DMSO were diluted with DMEM and freshly mixed with pDNA stock solutions in DMEM prior to transfection experiments, to afford several complexes at different amphiphile concentration (2-10 μM) while maintaining a constant final pDNA concentration of 2 ng/μL.” left out
as §1, §3

[5] = tested on: Hek293 cells; assay: RLuc pDNA delivery, robotic library screening, Hek293
[6] = tested on: A549 cells; assay: RLuc pDNA delivery, robotic library screening, A549
Description: as §2, §1, §3

[7] = tested on: ARPE19 cells; assay: RLuc pDNA delivery, robotic library screening, ARPE19

For Ac-RRK*K*RK*LRRLLRL-NH2 [13(3b)], the “mean luminescent intensity (RLuc pDNA)” value ([1]; Dodecanal, 5 μM) was 101412 RLU, the “mean luminescent intensity (RLuc pDNA)” value ([1]; Dodecanal, 10 μM) was 17841 RLU and the “mean luminescent intensity (RLuc pDNA)” value ([1]; Dodecanal, 15 μM) was 3435 RLU. For the same substance, the “mean luminescent intensity (RLuc pDNA)” value ([1]; Myristoleyl, 5 μM) was 34451 RLU, the “mean luminescent intensity (RLuc pDNA)” value ([1]; Myristoleyl, 15 μM) was 504 RLU and the “mean luminescent intensity (RLuc pDNA)” value ([1]; Oleyl, 5 μM) was 18257 RLU. For the same substance, the “mean luminescent intensity (RLuc pDNA)” value ([1]; Palmitoleyl, 5 μM) was 65487 RLU, the “mean luminescent intensity (RLuc pDNA)” value ([1]; Petroselinyl, 5 μM) was 11255 RLU and the “mean fluorescence intensity after transfection of EGFP mRNA” value (shortened to “mean fluorescence intensity”) ([2]; Palmitoleyl, 5 μM) was 1176. The “mean fluorescence intensity” value ([2]; Palmitoleyl, 10 μM) was −335, the “mean fluorescence intensity” value ([2]; Palmitoleyl, 15 μM) was −37 and the “mean fluorescence intensity” value ([2]; Petroselinyl, 10 μM) was 189. For the same substance, the “mean luminescent intensity (RLuc pDNA)” value ([3]; Oleyl, 5 μM) was 128030 RLU, the “mean luminescent intensity (RLuc pDNA)” value ([3]; Oleyl, 10 μM) was 4005 RLU and the “mean luminescent intensity (RLuc pDNA)” value ([3]; Oleyl, 15 μM) was −1204 RLU. The “mean luminescent intensity (RLuc pDNA)” value ([4]; Myristoleyl, 5 μM) was 893 RLU, the “mean luminescent intensity (RLuc pDNA)” value ([4]; Myristoleyl, 10 μM) was 446 RLU and the “mean luminescent intensity (RLuc pDNA)” value ([4]; Myristoleyl, 15 μM) was 338 RLU. For the same substance, the “mean luminescent intensity (RLuc pDNA)” value ([4]; Petroselinyl, 5 μM) was 590 RLU, the “mean luminescent intensity (RLuc pDNA)” value ([5]; Dodecanal, 5 μM) was 233706 RLU and the “mean luminescent intensity (RLuc pDNA)” value ([5]; Palmitoleyl, 5 μM) was 97665 RLU. For the same substance, the “mean luminescent intensity (RLuc pDNA)” value ([5]; Palmitoleyl, 10 μM) was 33115 RLU, the “mean luminescent intensity (RLuc pDNA)” value ([5]; Petroselinyl, 5 μM) was 100988 RLU and the “mean luminescent intensity (RLuc pDNA)” value ([5]; Petroselinyl, 10 μM) was 48097 RLU. For the same substance, the “mean luminescent intensity (RLuc pDNA)” value ([6]; Dodecanal, 15 μM) was 2061 RLU, the “mean luminescent intensity (RLuc pDNA)” value ([6]; Oleyl, 5 μM) was 9759 RLU and the “mean luminescent intensity (RLuc pDNA)” value ([6]; Oleyl, 10 μM) was 1493 RLU. The “mean luminescent intensity (RLuc pDNA)” value ([6]; Oleyl, 15 μM) was 1440 RLU, the “mean luminescent intensity (RLuc pDNA)” value ([7]; Dodecanal, 5 μM) was 4597 RLU and the “mean luminescent intensity (RLuc pDNA)” value ([7]; Myristoleyl, 5 μM) was 2571 RLU. For the same substance, the “mean luminescent intensity (RLuc pDNA)” value ([7]; Myristoleyl, 10 μM) was 86 RLU, the “mean luminescent intensity (RLuc pDNA)” value ([7]; Myristoleyl, 15 μM) was 64 RLU and the “mean luminescent intensity (RLuc pDNA)” value ([7]; Petroselinyl, 5 μM) was 5548 RLU.

“Ac-RRLK*RK*LRRLK*RL-NH2 (Ac-RRLK(NHNH2)RK(NHNH2)LRRLK(NHNH2)RL-NH2; not fully specified; printed as Ac-RRLK*RK*LRRLK*RL-NH2; also: K*4,K*6,K*11: native or modified lysine (ε-amide to a linker)) [13(2 + 1)]” was tested, and the “mean luminescent intensity (RLuc pDNA)” value ([1]; Dodecanal, 5 μM) was 132238 RLU, the “mean luminescent intensity (RLuc pDNA)” value ([1]; Dodecanal, 10 μM) was 6721 RLU and the “mean luminescent intensity (RLuc pDNA)” value ([1]; Dodecanal, 15 μM) was 2207 RLU. For the same substance, the “mean luminescent intensity (RLuc pDNA)” value ([1]; Myristoleyl, 5 μM) was 70015 RLU, the “mean luminescent intensity (RLuc pDNA)” value ([1]; Myristoleyl, 15 μM) was 1114 RLU and the “mean luminescent intensity (RLuc pDNA)” value ([1]; Palmitoleyl, 5 μM) was 105588 RLU. For the same substance, the “mean luminescent intensity (RLuc pDNA)” value ([1]; Petroselinyl, 5 μM) was 70216 RLU, the “mean luminescent intensity (RLuc pDNA)” value ([3]; Dodecanal, 5 μM) was 322366 RLU and the “mean luminescent intensity (RLuc pDNA)” value ([3]; Dodecanal, 10 μM) was 17040 RLU. The “mean luminescent intensity (RLuc pDNA)” value ([3]; Dodecanal, 15 μM) was 2698 RLU, the “mean luminescent intensity (RLuc pDNA)” value ([3]; Myristoleyl, 5 μM) was 418253 RLU and the “mean luminescent intensity (RLuc pDNA)” value ([3]; Myristoleyl, 10 μM) was 85339 RLU. The “mean luminescent intensity (RLuc pDNA)” value ([3]; Myristoleyl, 15 μM) was 23239 RLU, the “mean luminescent intensity (RLuc pDNA)” value ([3]; Oleyl, 5 μM) was 116466 RLU and the “mean luminescent intensity (RLuc pDNA)” value ([3]; Palmitoleyl, 5 μM) was 353987 RLU. For the same substance, the “mean luminescent intensity (RLuc pDNA)” value ([3]; Palmitoleyl, 10 μM) was 97075 RLU, the “mean luminescent intensity (RLuc pDNA)” value ([3]; Petroselinyl, 5 μM) was 168828 RLU and the “mean luminescent intensity (RLuc pDNA)” value ([4]; Myristoleyl, 5 μM) was 564 RLU. For the same substance, the “mean luminescent intensity (RLuc pDNA)” value ([4]; Myristoleyl, 10 μM) was 379 RLU, the “mean luminescent intensity (RLuc pDNA)” value ([4]; Myristoleyl, 15 μM) was 452 RLU and the “mean luminescent intensity (RLuc pDNA)” value ([4]; Palmitoleyl, 5 μM) was 1206 RLU. The “mean luminescent intensity (RLuc pDNA)” value ([5]; Dodecanal, 5 μM) was 269506 RLU, the “mean luminescent intensity (RLuc pDNA)” value ([5]; Palmitoleyl, 10 μM) was 59470 RLU and the “mean luminescent intensity (RLuc pDNA)” value ([5]; Petroselinyl, 5 μM) was 78739 RLU. The “mean luminescent intensity (RLuc pDNA)” value ([5]; Petroselinyl, 10 μM) was 31561 RLU, the “mean luminescent intensity (RLuc pDNA)” value ([6]; Dodecanal, 5 μM) was 24508 RLU and the “mean luminescent intensity (RLuc pDNA)” value ([6]; Dodecanal, 10 μM) was 1332 RLU. For the same substance, the “mean luminescent intensity (RLuc pDNA)” value ([6]; Myristoleyl, 5 μM) was 11594 RLU, the “mean luminescent intensity (RLuc pDNA)” value ([6]; Myristoleyl, 10 μM) was 2240 RLU and the “mean luminescent intensity (RLuc pDNA)” value ([6]; Oleyl, 5 μM) was 3288 RLU. The “mean luminescent intensity (RLuc pDNA)” value ([6]; Palmitoleyl, 5 μM) was 22640 RLU, the “mean luminescent intensity (RLuc pDNA)” value ([6]; Palmitoleyl, 10 μM) was 4550 RLU and the “mean luminescent intensity (RLuc pDNA)” value ([6]; Petroselinyl, 5 μM) was 19295 RLU. The “mean luminescent intensity (RLuc pDNA)” value ([6]; Petroselinyl, 15 μM) was 2435 RLU, the “mean luminescent intensity (RLuc pDNA)” value ([7]; Dodecanal, 5 μM) was 10116 RLU and the “mean luminescent intensity (RLuc pDNA)” value ([7]; Myristoleyl, 5 μM) was 2549 RLU. The “mean luminescent intensity (RLuc pDNA)” value ([7]; Myristoleyl, 10 μM) was −28 RLU, the “mean luminescent intensity (RLuc pDNA)” value ([7]; Myristoleyl, 15 μM) was −36 RLU and the “mean luminescent intensity (RLuc pDNA)” value ([7]; Palmitoleyl, 5 μM) was 5094 RLU. The “mean luminescent intensity (RLuc pDNA)” value ([7]; Petroselinyl, 5 μM) was 4118 RLU.
